The record followed here is ChEMBL document CHEMBL1926508, “Pharmacophore-based discovery of FXR agonists. Part I: Model development and experimental validation” (Bioorg Med Chem, 2011).

Activity calls are given as the source filed them. No cut-off for these calls is given here.

The first test concerns the target T1, Bile acid receptor (Mus musculus) (UniProt Q60641).
T1 sequence (whole entry): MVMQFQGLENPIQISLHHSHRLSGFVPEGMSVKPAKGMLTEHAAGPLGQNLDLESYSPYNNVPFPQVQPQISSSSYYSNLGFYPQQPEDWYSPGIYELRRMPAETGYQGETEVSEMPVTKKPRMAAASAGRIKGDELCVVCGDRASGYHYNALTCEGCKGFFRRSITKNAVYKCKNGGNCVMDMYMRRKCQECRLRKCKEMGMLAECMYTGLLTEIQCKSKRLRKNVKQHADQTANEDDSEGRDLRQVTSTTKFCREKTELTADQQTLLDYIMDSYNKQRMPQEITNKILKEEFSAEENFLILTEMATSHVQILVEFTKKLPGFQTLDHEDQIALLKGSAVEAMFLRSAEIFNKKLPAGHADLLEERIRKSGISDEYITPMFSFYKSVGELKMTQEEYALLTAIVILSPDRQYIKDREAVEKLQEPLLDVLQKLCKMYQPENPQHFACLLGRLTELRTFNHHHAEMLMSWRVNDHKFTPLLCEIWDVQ
Nature of the test: Agonist activity at mouse FXR expressed in HEK293 cells co-expressing mouse RXRalpha and ECRE-luc up to 100 uM by luciferase reporter gene assay. It is filed as functional, cell-based. In general terms: A reporter such as luciferase makes a cellular process visible.
On to `C1=C(c2ccc(OCc3ccccc3)c(OCc3ccccc3)c2)CC2CCCCC2C1` (stereo not drawn), for which the outcome was inactive. Same read-out and setting: with `O=C(O)c1cnc2cc(OCCOc3ccc(F)cc3)ccc2c1O` the entry was “inactive”; with `O=C(O)c1ccc(C(=O)c2ccc(C(=O)c3ccc(C(=O)O)cc3)cc2)cc1`, “inactive”; with `COc1ccc(/C(C)=N/NC(=O)CC(=O)N(C(=O)c2ccccc2)c2ccc(C)cc2)cc1`, “inactive”. The same measure, in the same setting: with `C[C@]12CC[C@H]3[C@@H](CCC4CC(=O)/C(=C\C(F)(F)F)C[C@@]43C)[C@@H]1CC[C@@H]2C(=O)O` (stereo partly drawn) the entry was “inactive”. Take `Cc1cc(C(=O)CCCCCCCCC(=O)O)ccc1O`: the result was inactive.

For a further test, the target named is T1, Bile acid receptor (Mus musculus). Nature of the test: Agonist activity at mouse FXR expressed in HEK293 cells co-expressing mouse RXRalpha and ECRE-luc by luciferase reporter gene assay. The test is classed as functional, cell-based.
With `CCCCc1ccc([C@@H](CC(=O)c2ccccc2)c2ccccc2)cc1`, the Activity result was “Dose-dependent effect”. For the compound `COc1ccc(N2CCN(C[C@H](O)COc3cc4c(c5c3CCCC5)CCCC4)CC2)cc1`, the Activity result is “Dose-dependent effect”.
